Columns and labels:
Bacillus atrophaeus = assay: Bacterial panel testing, MIC by broth microdilution; format: cell-based; conditions: 20-24 hours growth
Outline: (§1)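 Twofold broth microdilution: compound, prepared at 10 μg/ml in DMSO, serially diluted left to right in inoculated Mueller-Hinton or Brain Heart infusion media. Inoculum from 2-4 h cultures at 37° C, standardized to McFarland density. Plates sealed and grown 20-24 h, then clear wells scored.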

Enterococcus faecium = assay: as above; format: cell-based; conditions: 20-24 hours growth
Outline: as §1

Eschericia coli = assay: as above; format: cell-based; conditions: 20-24 hours growth
Outline: as §1

Pseudomonas aeruginosa = assay: as above; format: cell-based; conditions: 20-24 hours growth
Outline: as §1

Salmonella choleraesuis = assay: as above; format: cell-based; conditions: 20-24 hours growth
Outline: as §1

Staphylococcus aureus = assay: as above; format: cell-based; conditions: 20-24 hours growth
Outline: as §1

Lungs cancer cells A549 = assay: Mammalian cytotoxicity

Compound | MIC BA (Bacillus atrophaeus) [µg/mL] | MIC EF (Enterococcus faecium) [µg/mL] | MIC EC (Eschericia coli) [µg/mL] | MIC PA (Pseudomonas aeruginosa) [µg/mL] | MIC SC (Salmonella choleraesuis) [µg/mL] | MIC SA (Staphylococcus aureus) [µg/mL] | Mammalian Cytotoxicity IC50 (Lungs cancer cells A549) [µg/mL]
OC[C@H]1O[C@@H]2O[C@H]3[C@H](O)[C@@H](O)[C@@H](O[C@H]4[C@H](O)[C@@H](O)[C@@H](O[C@H]5[C@H](O)[C@@H](O)[C@@H](O[C@H]6[C@H](O)[C@@H](O)[C@@H](O[C@H]7[C@H](O)[C@@H](O)[C@@H](O[C@H]8[C@H](O)[C@@H](O)[C@@H](O[C@H]1[C@H](O)[C@H]2O)O[C@@H]8CO)O[C@@H]7CO)O[C@@H]6CO)O[C@@H]5CO)O[C@@H]4CO)O[C@@H]3CO | >200 | >200 | >200 | >200 | >200 | >200 | 
O[C@@H]1[C@@H](O)[C@H]2O[C@H]3[C@H](O)[C@@H](O)[C@@H](O[C@H]4[C@H](O)[C@@H](O)[C@@H](O[C@H]5[C@H](O)[C@@H](O)[C@@H](O[C@H]6[C@H](O)[C@@H](O)[C@@H](O[C@H]7[C@H](O)[C@@H](O)[C@@H](O[C@H]8[C@H](O)[C@@H](O)[C@@H](O[C@@H]1[C@@H](CNCc1ccccc1)O2)O[C@@H]8CNCc1ccccc1)O[C@@H]7CNCc1ccccc1)O[C@@H]6CNCc1ccccc1)O[C@@H]5CNCc1ccccc1)O[C@@H]4CNCc1ccccc1)O[C@@H]3CNCc1ccccc1 |  |  |  | >200 |  |  | 840
O[C@@H]1[C@@H](O)[C@H]2O[C@H]3[C@H](O)[C@@H](O)[C@@H](O[C@H]4[C@H](O)[C@@H](O)[C@@H](O[C@H]5[C@H](O)[C@@H](O)[C@@H](O[C@H]6[C@H](O)[C@@H](O)[C@@H](O[C@H]7[C@H](O)[C@@H](O)[C@@H](O[C@H]8[C@H](O)[C@@H](O)[C@@H](O[C@@H]1[C@@H](CSCc1ccccc1)O2)O[C@@H]8CSCc1ccccc1)O[C@@H]7CSCc1ccccc1)O[C@@H]6CSCc1ccccc1)O[C@@H]5CSCc1ccccc1)O[C@@H]4CSCc1ccccc1)O[C@@H]3CSCc1ccccc1 | >200 | >200 | >200 | >200 | >200 | >200 | 
CC(=O)OC1C2OC(Cn3cc(Cc4ccccc4)nn3)C(OC3OC(Cn4cc(Cc5ccccc5)nn4)C(OC4OC(Cn5cc(Cc6ccccc6)nn5)C(OC5OC(Cn6cc(Cc7ccccc7)nn6)C(OC6OC(Cn7cc(Cc8ccccc8)nn7)C(OC7OC(Cn8cc(Cc9ccccc9)nn8)C(OC8OC(Cn9cc(Cc%10ccccc%10)nn9)C(O2)C(OC(C)=O)C8OC(C)=O)C(OC(C)=O)C7OC(C)=O)C(OC(C)=O)C6OC(C)=O)C(OC(C)=O)C5OC(C)=O)C(OC(C)=O)C4OC(C)=O)C(OC(C)=O)C3OC(C)=O)C1OC(C)=O (stereo not shown) | >200 | >200 | >200 | >200 | >200 | >200 | 
OC1C2OC(Cn3cc(Cc4ccccc4)nn3)C(OC3OC(Cn4cc(Cc5ccccc5)nn4)C(OC4OC(Cn5cc(Cc6ccccc6)nn5)C(OC5OC(Cn6cc(Cc7ccccc7)nn6)C(OC6OC(Cn7cc(Cc8ccccc8)nn7)C(OC7OC(Cn8cc(Cc9ccccc9)nn8)C(OC8OC(Cn9cc(Cc%10ccccc%10)nn9)C(O2)C(O)C8O)C(O)C7O)C(O)C6O)C(O)C5O)C(O)C4O)C(O)C3O)C1O (stereo not shown) | >200 | >200 | >200 | >200 | >200 | >200 | 
Cl.Cl.Cl.Cl.Cl.Cl.Cl.NC(CCC(=O)O)C(=O)NCC1OC2OC3C(CNC(=O)C(N)CCC(=O)O)OC(OC4C(CNC(=O)C(N)CCC(=O)O)OC(OC5C(CNC(=O)C(N)CCC(=O)O)OC(OC6C(CNC(=O)C(N)CCC(=O)O)OC(OC7C(CNC(=O)C(N)CCC(=O)O)OC(OC8C(CNC(=O)C(N)CCC(=O)O)OC(OC1C(O)C2O)C(O)C8O)C(O)C7O)C(O)C6O)C(O)C5O)C(O)C4O)C(O)C3O (stereo not shown) | >200 | >200 | >200 | >200 | >200 | >200 | 
Cl.Cl.Cl.Cl.Cl.Cl.Cl.Cl.Cl.Cl.Cl.Cl.Cl.Cl.NC(Cc1cnc[nH]1)C(=O)NCC1OC2OC3C(CNC(=O)C(N)Cc4cnc[nH]4)OC(OC4C(CNC(=O)C(N)Cc5cnc[nH]5)OC(OC5C(CNC(=O)C(N)Cc6cnc[nH]6)OC(OC6C(CNC(=O)C(N)Cc7cnc[nH]7)OC(OC7C(CNC(=O)C(N)Cc8cnc[nH]8)OC(OC8C(CNC(=O)C(N)Cc9cnc[nH]9)OC(OC1C(O)C2O)C(O)C8O)C(O)C7O)C(O)C6O)C(O)C5O)C(O)C4O)C(O)C3O (stereo not shown) | >200 | >200 | >200 | >200 | >200 | >200 | 
OC1C2OC(CNC(=S)Nc3ccccc3)C(OC3OC(CNC(=S)Nc4ccccc4)C(OC4OC(CNC(=S)Nc5ccccc5)C(OC5OC(CNC(=S)Nc6ccccc6)C(OC6OC(CNC(=S)Nc7ccccc7)C(OC7OC(CNC(=S)Nc8ccccc8)C(OC8OC(CNC(=S)Nc9ccccc9)C(O2)C(O)C8O)C(O)C7O)C(O)C6O)C(O)C5O)C(O)C4O)C(O)C3O)C1O (stereo not shown) | >200 | >200 | >200 | >200 | >200 | >200 | 
OC1C2OC(CNC(=S)NCc3ccccc3)C(OC3OC(CNC(=S)NCc4ccccc4)C(OC4OC(CNC(=S)NCc5ccccc5)C(OC5OC(CNC(=S)NCc6ccccc6)C(OC6OC(CNC(=S)NCc7ccccc7)C(OC7OC(CNC(=S)NCc8ccccc8)C(OC8OC(CNC(=S)NCc9ccccc9)C(O2)C(O)C8O)C(O)C7O)C(O)C6O)C(O)C5O)C(O)C4O)C(O)C3O)C1O (stereo not shown) | >200 | >200 | >200 | >200 | >200 | >200 | 
O[C@@H]1[C@@H](O)[C@H]2O[C@H]3[C@H](O)[C@@H](O)[C@@H](O[C@H]4[C@H](O)[C@@H](O)[C@@H](O[C@H]5[C@H](O)[C@@H](O)[C@@H](O[C@H]6[C@H](O)[C@@H](O)[C@@H](O[C@H]7[C@H](O)[C@@H](O)[C@@H](O[C@H]8[C@H](O)[C@@H](O)[C@@H](O[C@@H]1[C@@H](CNCCc1ccccc1)O2)O[C@@H]8CNCCc1ccccc1)O[C@@H]7CNCCc1ccccc1)O[C@@H]6CNCCc1ccccc1)O[C@@H]5CNCCc1ccccc1)O[C@@H]4CNCCc1ccccc1)O[C@@H]3CNCCc1ccccc1 |  |  |  | >200 |  |  | 43
O[C@@H]1[C@@H](O)[C@H]2O[C@H]3[C@H](O)[C@@H](O)[C@@H](O[C@H]4[C@H](O)[C@@H](O)[C@@H](O[C@H]5[C@H](O)[C@@H](O)[C@@H](O[C@H]6[C@H](O)[C@@H](O)[C@@H](O[C@H]7[C@H](O)[C@@H](O)[C@@H](O[C@H]8[C@H](O)[C@@H](O)[C@@H](O[C@@H]1[C@@H](CNC1CCN(Cc9ccccc9)CC1)O2)O[C@@H]8CNC1CCN(Cc2ccccc2)CC1)O[C@@H]7CNC1CCN(Cc2ccccc2)CC1)O[C@@H]6CNC1CCN(Cc2ccccc2)CC1)O[C@@H]5CNC1CCN(Cc2ccccc2)CC1)O[C@@H]4CNC1CCN(Cc2ccccc2)CC1)O[C@@H]3CNC1CCN(Cc2ccccc2)CC1 |  |  |  | >200 |  |  | 127
CCCCCCNC[C@H]1O[C@@H]2O[C@H]3[C@H](O)[C@@H](O)[C@@H](O[C@H]4[C@H](O)[C@@H](O)[C@@H](O[C@H]5[C@H](O)[C@@H](O)[C@@H](O[C@H]6[C@H](O)[C@@H](O)[C@@H](O[C@H]7[C@H](O)[C@@H](O)[C@@H](O[C@H]8[C@H](O)[C@@H](O)[C@@H](O[C@H]1[C@H](O)[C@H]2O)O[C@@H]8CNCCCCCC)O[C@@H]7CNCCCCCC)O[C@@H]6CNCCCCCC)O[C@@H]5CNCCCCCC)O[C@@H]4CNCCCCCC)O[C@@H]3CNCCCCCC |  |  |  | >200 |  |  | 129
CCCCCCCCNC[C@H]1O[C@@H]2O[C@H]3[C@H](O)[C@@H](O)[C@@H](O[C@H]4[C@H](O)[C@@H](O)[C@@H](O[C@H]5[C@H](O)[C@@H](O)[C@@H](O[C@H]6[C@H](O)[C@@H](O)[C@@H](O[C@H]7[C@H](O)[C@@H](O)[C@@H](O[C@H]8[C@H](O)[C@@H](O)[C@@H](O[C@H]1[C@H](O)[C@H]2O)O[C@@H]8CNCCCCCCCC)O[C@@H]7CNCCCCCCCC)O[C@@H]6CNCCCCCCCC)O[C@@H]5CNCCCCCCCC)O[C@@H]4CNCCCCCCCC)O[C@@H]3CNCCCCCCCC |  |  |  | >200 |  |  | 123
C[C@@H](NCC1OC2OC3C(CN[C@H](C)c4ccccc4)OC(OC4C(CN[C@H](C)c5ccccc5)OC(OC5C(CN[C@H](C)c6ccccc6)OC(OC6C(CN[C@H](C)c7ccccc7)OC(OC7C(CN[C@H](C)c8ccccc8)OC(OC8C(CN[C@H](C)c9ccccc9)OC(OC1C(O)C2O)C(O)C8O)C(O)C7O)C(O)C6O)C(O)C5O)C(O)C4O)C(O)C3O)c1ccccc1 (stereo partly shown) |  |  |  | >200 |  |  | 105
COc1cccc(CNCC2OC3OC4C(CNCc5cccc(OC)c5)OC(OC5C(CNCc6cccc(OC)c6)OC(OC6C(CNCc7cccc(OC)c7)OC(OC7C(CNCc8cccc(OC)c8)OC(OC8C(CNCc9cccc(OC)c9)OC(OC9C(CNCc%10cccc(OC)c%10)OC(OC2C(O)C3O)C(O)C9O)C(O)C8O)C(O)C7O)C(O)C6O)C(O)C5O)C(O)C4O)c1 (stereo not shown) |  |  |  | >200 |  |  | 282
COc1ccccc1CNCC1OC2OC3C(CNCc4ccccc4OC)OC(OC4C(CNCc5ccccc5OC)OC(OC5C(CNCc6ccccc6OC)OC(OC6C(CNCc7ccccc7OC)OC(OC7C(CNCc8ccccc8OC)OC(OC8C(CNCc9ccccc9OC)OC(OC1C(O)C2O)C(O)C8O)C(O)C7O)C(O)C6O)C(O)C5O)C(O)C4O)C(O)C3O (stereo not shown) |  |  |  | >200 |  |  | 297
